# Measured values taken from patent US20230414758A1, “CAPSAICIN-DERIVED PHOTOSENSITIZER, AND PREPARATION METHOD AND USE THEREOF” (priority 2022, published 2023).
# Assays:
# [1] = reference value used for calculation; cited from earlier work
# TRPV1 protein = biological target: T1, TRPV1 protein (Mus musculus, UniProt Q704Y3); assay: Calcium regulation ability at the cellular level, Fluo-8 AM staining, confocal microscopy; format: cell-based; conditions: 4T1 cells
# T1 construct: endogenous in cells; host or cells: 4T1 cells
# Procedure: The specific operations were as follows.
# A high-glucose DMEM cell culture medium containing 10% fetal bovine serum and 5% double antibodies (the following media all contained 10% fetal bovine serum and 5% double antibodies) was prepared. Triple negative breast cancer 4T1 cells in logarithmic growth phase were seeded in a Confocal cell culture dish at a density of 1.0×10^4 cells/well, and incubated in a cell incubator (37° C., 5% CO2) for 12 hrs. […] The cells were incubated in an incubator for another 12 hrs, and the culture medium was changed after incubation. The irradiation group was irradiated with LED light (660 nm, 20 mW cm^−2) for 15 min (without treatment in the non-irradiation group). After irradiation, the culture medium was discarded. The cells were rinsed three times with PBS, and the rinsed cells were stained (10 min) with a fluorescent dye Fluo-8 AM (50.0 μmol L^−1, 1.0 mL) for intracellular calcium. After staining, the cells were rinsed with PBS, and observed by laser confocal microscopy.
# T1 sequence (Q704Y3 whole entry): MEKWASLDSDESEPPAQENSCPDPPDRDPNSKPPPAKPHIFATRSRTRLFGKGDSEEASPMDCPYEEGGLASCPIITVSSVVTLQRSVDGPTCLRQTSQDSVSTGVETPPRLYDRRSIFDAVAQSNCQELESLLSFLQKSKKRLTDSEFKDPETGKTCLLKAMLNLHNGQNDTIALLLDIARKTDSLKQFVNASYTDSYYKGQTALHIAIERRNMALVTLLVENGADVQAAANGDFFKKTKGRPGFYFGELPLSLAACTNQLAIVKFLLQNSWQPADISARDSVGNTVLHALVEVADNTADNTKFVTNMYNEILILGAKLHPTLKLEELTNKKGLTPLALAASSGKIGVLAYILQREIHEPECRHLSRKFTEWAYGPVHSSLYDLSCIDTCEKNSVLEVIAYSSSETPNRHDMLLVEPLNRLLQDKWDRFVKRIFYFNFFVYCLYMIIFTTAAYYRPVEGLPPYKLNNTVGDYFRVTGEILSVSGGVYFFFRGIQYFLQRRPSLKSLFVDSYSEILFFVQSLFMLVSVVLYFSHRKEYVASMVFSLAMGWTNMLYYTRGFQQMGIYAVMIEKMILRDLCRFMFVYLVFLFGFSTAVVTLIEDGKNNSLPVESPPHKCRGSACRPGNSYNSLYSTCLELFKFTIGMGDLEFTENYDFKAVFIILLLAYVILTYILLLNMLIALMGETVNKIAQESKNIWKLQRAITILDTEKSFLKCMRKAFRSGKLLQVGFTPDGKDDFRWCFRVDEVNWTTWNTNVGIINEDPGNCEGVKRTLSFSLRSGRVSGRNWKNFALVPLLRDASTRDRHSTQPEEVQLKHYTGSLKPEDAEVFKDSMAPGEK
SMILES,singlet oxygen quantum yield of the reference [1],"change of intracellular calcium fluorescence intensity after irradiation versus before irradiation (TRPV1 protein; LED 660 nm, 20 mW cm^−2, 15 min)",intracellular calcium fluorescence under non-irradiation and irradiation conditions (TRPV1 protein; compared with PBS and BDP groups)
"[Zn+2].c1ccc2c(c1)-c1nc-2nc2[n-]c(nc3nc([n-]c4nc(n1)-c1ccccc1-4)-c1ccccc1-3)c1ccccc21 [ZnPc, Zinc phthalocyanine]",1,,
"COc1cc(CNC(=O)CCCC/C=C/C(C)C)ccc1O [CAP, capsaicin]",,does not change obviously,intense green fluorescence
